Laboratory results taken from paper PMC4128046, “Effect of a toggle switch mutation in TM6 of the human adenosine A3 receptor on Gi protein-dependent signalling and Gi-independent receptor internalization” (British Journal of Pharmacology, 2014).
Substitutions are numbered along the chain they refer to.

Tests used:
Assay type in all cases: cell-based
A3-YFP [1] = target: T1, A3-YFP (Homo sapiens, UniProt P0DMS8); experiment: ERK1/2 phosphorylation assay (AlphaScreen SureFire), A3-YFP; details: for Emax: read-out: Maximum response (% 10 μM NECA), pERK1/2 assay
T1 construct: cDNA encoding the full length human A3 receptor; expressed in transfected cells
T1 sequence (P0DMS8 1-318): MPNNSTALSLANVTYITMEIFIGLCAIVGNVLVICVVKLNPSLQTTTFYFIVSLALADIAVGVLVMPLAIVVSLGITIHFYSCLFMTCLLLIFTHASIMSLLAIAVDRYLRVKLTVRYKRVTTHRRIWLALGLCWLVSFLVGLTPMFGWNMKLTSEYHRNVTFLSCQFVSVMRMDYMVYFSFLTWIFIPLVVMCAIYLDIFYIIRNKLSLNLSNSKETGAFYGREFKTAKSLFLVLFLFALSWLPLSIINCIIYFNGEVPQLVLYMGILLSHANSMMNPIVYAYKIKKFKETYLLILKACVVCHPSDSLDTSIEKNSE
Method: Normal growth medium was replaced with serum-free medium for at least 4 h before analysis. Levels of ERK1/2 phosphorylation were measured using the AlphaScreen SureFire p-ERK assay kit (PerkinElmer). […] Medium was removed from each well and replaced with 40 μL SureFire lysis buffer. After shaking for 5 min, a 1:80:20:120 v v^−1 dilution of AlphaScreen beads : lysate : activation buffer : reaction buffer in a 5.5 μL total volume was transferred to a white opaque 384-well proxiplate in diminished light. After 2 h of incubation in the dark at room temperature, the fluorescence signal was measured with an EnVision plate reader (PerkinElmer) using standard AlphaScreen settings.
A basal and FSK control was included in each separate concentration-response CRE-SPAP gene transcription assay and cAMP accumulation assay to allow the responses in each cell line to be expressed as an inhibition of FSK-stimulated SPAP production.

A3-vYc/β-arrestin2-vYnL = target: T2, A3-vYc/β-arrestin2-vYnL (Homo sapiens, UniProt P0DMS8); experiment: BiFC of receptor with β-arrestin2 (automated imaging), A3-vYc; details: A3-vYc/β-arrestin2-vYnL cells; for Maximal BiFC (%): percentage of 10 μM NECA in the cell line
T2 construct: cDNA encoding the full length human A3 receptor; expressed in transfected cells; host or cells: CHO-K1 stably expressing β-arrestin2-vYnL, stably co-transfected with A3-vYc
T2 sequence (P32121 whole entry partner, one chain of several): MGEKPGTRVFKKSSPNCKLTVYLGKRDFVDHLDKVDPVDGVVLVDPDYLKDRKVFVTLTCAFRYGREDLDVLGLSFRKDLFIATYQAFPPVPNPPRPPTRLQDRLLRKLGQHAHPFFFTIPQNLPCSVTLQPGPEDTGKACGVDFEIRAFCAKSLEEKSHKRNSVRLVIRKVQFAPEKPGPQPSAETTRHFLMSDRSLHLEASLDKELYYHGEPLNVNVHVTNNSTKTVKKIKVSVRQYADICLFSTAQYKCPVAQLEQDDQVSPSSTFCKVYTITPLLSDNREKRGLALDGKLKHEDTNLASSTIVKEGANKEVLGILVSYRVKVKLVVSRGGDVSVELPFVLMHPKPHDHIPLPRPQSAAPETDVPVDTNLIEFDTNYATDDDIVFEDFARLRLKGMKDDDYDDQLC

A3-YFP [2] = target: T1, A3-YFP; experiment: Confocal imaging of receptor internalization and membrane YFP fluorescence, A3-YFP; details: A3-YFP cells, 10 μM agonist
Method: (§1) Live-cell BiFC imaging was performed on A3-vYc/β-arrestin2-vYnL and A3 W243F-vYc/β-arrestin2-vYnL cells grown in Nunc Labtek 8-well plates, and images obtained using a Zeiss 710 confocal microscope (Carl Zeiss GmbH, Jena, Germany) fitted with a 63× plan-Apochromat NA1.4 Ph3 oil-immersion objective. Live-cell imaging analysis was performed on A3-YFP or A3 W243F-YFP CRE-SPAP cells and transiently expressed SNAP-A3 or SNAP-A3 W243F grown in Nunc Labtek 8-well plates, and images obtained using a Zeiss LSM5 Exciter confocal microscope (Carl Zeiss GmbH) fitted with a 63× plan-Apochromat NA1.4 DIC oil-immersion objective. For both YFP, BiFC and BG-AF488 label, a 488 nm argon laser was used to excite the fluorophore and emission was detected using a BP505-530 filter. Cells expressing the SNAP-tagged receptors were labelled with 1 μM SNAP-surface BG-AF488 (New England Biolabs) in DMEM/F12 medium for 30 min at 37°C/5% CO2. Before all imaging experiments, normal growth medium or medium containing BG-AF488 was removed and cells were washed twice in HEPES-buffered saline solution (HBSS; 25 mM HEPES, 10 mM glucose, 146 mM NaCl, 5 mM KCl, 1 mM MgSO4, 2 mM sodium pyruvate, 1.3 mM CaCl2) and fresh HBSS was added for analysis. […] Images of A3-YFP and A3 W243F-YFP cells were taken with same pinhole diameter, laser power, gain and offset to allow comparison of YFP fluorescence. To obtain fluorescence intensity values, a region of interest was drawn around the plasma membrane of 10 cells per image in Zeiss AIM 4.2 software (Carl Zeiss GmbH).

A3 W243F-YFP = target: T3, A3 W243F-YFP (Homo sapiens, UniProt P0DMS8, W243F); experiment: Confocal imaging of receptor internalization and membrane YFP fluorescence, A3 W243F-YFP; details: A3 W243F-YFP cells, 10 μM agonist
T3 construct: Full length A3 W243F-YFP was excised and subcloned into a native pcDNA3.1 vector; expressed in transfected cells
T3 sequence (P0DMS8 1-318 W243F): T1 sequence (P0DMS8 1-318) with W243F
Method: as §1

| EC50 (A3-YFP [1]; A3-YFP cells, 5 min stimulation, read-out: pEC50 (pERK1/2 assay) (converted)) | % maximal internalization vs. 10 μM NECA at 2 h (BiFC) (A3-vYc/β-arrestin2-vYnL; 10 μM, 2 h) | EC50 (A3-vYc/β-arrestin2-vYnL; 60 min, read-out: pEC50 (BiFC with β-arrestin2-vYnL) (converted)) | reduction in membrane fluorescence (A3 W243F-YFP) | Structure (SMILES) | Emax (A3-YFP [1]) | Maximal BiFC (%) (A3-vYc/β-arrestin2-vYnL; 60 min) | internalization of the receptor seen in confocal images (A3-YFP [2]) | reduction in membrane fluorescence (A3-YFP [2]) | internalization of the receptor seen in confocal images (A3 W243F-YFP) |
| --- | --- | --- | --- | --- | --- | --- | --- | --- | --- |
| 1.91 nM | 84.3 ± 8.2% | 6.46 nM | no significant change | CCCCC#Cc1nc(NC)c2ncn([C@@H]3O[C@H](CO)[C@@H](O)[C@H]3O)c2n1 [HEMADO, 2-(1-hexynyl)-N-methyladenosine] | 120 ± 5.8% | 72.2 ± 7.1% | substantial internalization | 50% | unable to stimulate internalization |
|  |  |  |  | CCNC(=O)[C@H]1O[C@@H](n2cnc3c(N)ncnc32)[C@H](O)[C@@H]1O [NECA, 5-(N-ethylcarboxamido)adenosine] | 100% | 100% | rapid internalization | 50% | rapid internalization |
